{
  "source": "patent US10682320B2",
  "about": "“Method for inhibiting osteoclast development” (West Virginia University, priority 2012, dated 2020)",
  "type_in_all_cases": "cell-based",
  "key": {"[1]": {"molecular_target": "T1, CRAC channel (Orai I / STIM I) (Homo sapiens, UniProt Q13586)", "T1 construct": "expressed in transfected cells; host or cells: HEK293", "T1 sequence (Q13586 23-685)": "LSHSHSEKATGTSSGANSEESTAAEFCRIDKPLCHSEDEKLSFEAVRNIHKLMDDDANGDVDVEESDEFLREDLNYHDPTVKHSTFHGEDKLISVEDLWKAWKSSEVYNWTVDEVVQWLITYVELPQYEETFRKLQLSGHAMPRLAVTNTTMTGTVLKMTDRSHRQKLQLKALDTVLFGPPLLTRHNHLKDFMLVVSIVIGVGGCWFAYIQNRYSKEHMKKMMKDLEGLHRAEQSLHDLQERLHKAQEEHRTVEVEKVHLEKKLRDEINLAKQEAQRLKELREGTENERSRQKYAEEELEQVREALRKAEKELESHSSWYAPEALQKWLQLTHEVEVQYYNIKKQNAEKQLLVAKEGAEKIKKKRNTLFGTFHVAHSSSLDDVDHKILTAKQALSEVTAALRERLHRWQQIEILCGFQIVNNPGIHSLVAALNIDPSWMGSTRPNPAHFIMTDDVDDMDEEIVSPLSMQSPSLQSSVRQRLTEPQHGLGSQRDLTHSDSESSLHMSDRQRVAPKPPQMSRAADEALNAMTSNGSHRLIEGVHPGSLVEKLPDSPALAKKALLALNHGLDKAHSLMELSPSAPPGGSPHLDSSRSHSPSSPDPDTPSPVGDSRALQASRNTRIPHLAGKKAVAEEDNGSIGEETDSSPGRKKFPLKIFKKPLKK", "test": "Whole cell CRAC current (Icrac) in HEK293 cells expressing Orai I and YFP-STIM I", "details": "whole cell clamp", "description": "Analysis was performed in HEK293 cells stably expressing Orai I and transfected with STIM I YFP used conventional whole cell voltage recordings as described (see, Wang Y, Deng X, Zhou Y, Hendron E, Mancarelia S, Ritchie M F. Tang X D, Baba Y, Kurosaki T, Mori Y, Soboloff J, Gill D L., “STIM protein coupling in the activation of Orai channels”, Proc Natl Acad Sci USA Vol. 106, pages 7391-7396, 2009). Immediately after establishment of the whole-cell electrode seal, voltage ramps spanning from—100 to +100 mV in 50 msec were delivered from a holding potential of 0 mV at a rate of 0.5 Hz. A 10 mV junction potential compensation was applied. […]\nThe haloanilide DCPA blocks store-operated Ca^2+ channel function in Jurkat cells with no effect on ER Ca^2+ content. […] To address this, the present inventor examined HEK293 cells stably expressing Orai I and transiently transfected with YFP-STIMI and measured the effect of DCPA on CRAC current or Icrac. CRAC channel activity was measured in the whole cell clamp position after passively depleting Ca^2+ stores via the presence of 10 mM EGTA in the patch pipette. […]"}, "CRAC channel": {"molecular_target": "CRAC channel (Homo sapiens, UniProt Q13586)", "sequence (Q13586 23-685)": "as above", "test": "CRAC channel activity by Fura-2 fluorescence in Jurkat cells after thapsigargin", "set-up": "endogenous in cells; host or cells: Jurkat cells", "description": "Ratiometric imaging of intracellular Ca^2+ using fura-2 was as described (see, Zhou et al., 2009 above). Briefly, cells on coverslips, in cation safe solution (107 mM NaCl, 7.2 mM KCl, 1.2 mM MgCl2, 11.5 mM glucose, 20 mM HEPES-NaOH, pH 7.2) were loaded with fura-2 acetoxymethyl ester (2 μM) for 30 min at 24° C. Cells were washed and fluorescent probe was allowed to de-esterify for 30 min. From signal remaining after saponin permeabilization, ˜85% of the dye was confined to the cytoplasm (see, Ma H-T, Patterson R L. van Rossum D B. Birnbaumer L, Mikoshiba K, Gill D L, “Requirement of the inositol trisphosphate receptor for activation of store-operated Ca^2+ channels”, Science, Vol. 287, pages 1647-1651, 2000). Ca^2+ measurements were made using a Leica DMI 6000B fluorescence microscope controlled by Slidebook Software. Fluorescence emission at 505 nm was monitored while alternating between 340 and 380 nm excitation wavelengths at a frequency of 0.67 Hz; intracellular Ca^2+ measurements are shown as 340/380 nm emission ratios obtained from groups (35-45) of single cells. Measurements shown are representative a minimum of three independent experiments.\nN-(3,4-dibromophenyl)propanamide]. Jurkat cells, a T cell line that is very sensitive to DCPA, was cultured with the indicated compounds, DCPA, DBPA, and ethanol (EtOH). CRAC channel activity was monitored using Fura-2 fluorescence using standard known techniques. Cells were incubated in each composition at 100 uM for 10 minutes prior to addition of the SERCA inhibitor thapsigargin (Tg) to induce SOCe. Decreased CRAC channel activity is clearly evident with DCPA and DBPA.\nJurkat cells, a T cell line that is very sensitive to DCPA, was cultured with the indicated compositions of the present invention, namely, DNI, NM Propanil, and DNMNI. CRAC channel activity was monitored using Fura-2 fluorescence using standard known techniques. Cells were incubated in each composition at 100 uM for 10 minutes prior to addition of the SERCA inhibitor thapsigargin (Tg) to induce SOCe. Decreased CRAC channel activity is clearly evident with each of the compositions of the present invention. […] Each of the compositions of this invention achieve the results achieved with the known DCPA but without the burden of toxicity of DCPA that would accompany further metabolism of DCPA."}, "[2]": {"test_system": "human monocytes differentiating into osteoclasts", "test": "Human osteoclast differentiation in vitro (multinucleation, TRAP)", "details": "8 days after RANKL", "description": "Human monocytes were isolated from normal buffy coat cells (60-80 ml) obtained with approval of institutional review boards by separation from donor blood, the white-cell depleted blood retained for clinical use. Human monocyte culture and differentiation were as reported (see, Yaroslayskly B B, Zhang Y, Kalla S E, Garcia P V, Sharrow A C, Li Y, Zaidi M, Wu C, Blair H C, “NO-dependent osteoclast motility: Reliance on cGMP-dependent protein kinase I and VASP”, J Cell Sci I, Vol. 18, pages 5479-5487, 2005). Briefly, human monocytes cells were isolated from buffy coat on ficoll lymphocyte separation media and cultured at ˜6×10^5 cells per cm^2 in monocyte maintenance medium, Dulbecco's modified essential medium (DMEM) with 20 ng/ml of human m-CSF and 10% FBS, for 24 hours (h). After 24 h in culture, the medium was changed to osteoclast differentiation medium containing in addition of human 50 ng/ml of RANKL, with the additional inhibitors or activators as specified in results. Human osteoclast cultures were generally maintained for a minimum of 7 days before analysis, or longer times as specified in results.\nThe effect of DCPA on human osteoclast differentiation 8 days after addition of RANKL was evaluated."}},
  "data": [
    {"smiles": "CCC(=O)Nc1ccc(Cl)c(Cl)c1", "note": "[DCPA, N-(3,4-dichlorophenyl)propanamide]", "values": [
      {"measurement": "current-voltage relationship versus control cells", "setting": "[1]", "value": "did not show significant differences"},
      {"measurement": "time for CRAC current to return to baseline after break-in", "setting": "[1]; 10 mM EGTA in pipette", "value": "less than 4 minutes"},
      {"measurement": "effect on ER Ca2+ content", "setting": "CRAC channel", "value": "no effect"},
      {"measurement": "store-operated Ca2+ channel function", "setting": "CRAC channel", "value": "blocks"},
      {"measurement": "CRAC channel activity", "setting": "CRAC channel; 100 uM, 10 minutes before thapsigargin", "value": "Decreased"},
      {"measurement": "number of multinucleated TRAP+ cells", "setting": "[2]; 1.0 μM", "value": "minimal effect"},
      {"measurement": "number of multinucleated cells", "setting": "[2]; 10 and 100 μM", "value": "marked progressive reduction"},
      {"measurement": "TRAP activity", "setting": "[2]; up to highest concentration (100 μM)", "value": "no differences"}
    ]}
  ]
}
